The compounds below were run against T1, human SK3 channel (hKCa2.3) (Homo sapiens, UniProt Q9UGI6) (assay: Automated patch clamping (QPatch 16 HT whole-cell recordings)). Details: HEK-293 cells stably expressing hKCa2.3; currents measured at −80 mV; normalized to N-methyl bicuculline; read-out: IC50 in the Automated patch clamping assay (SK3 channel inhibition).
T1 construct: expressed in transfected cells
Format: cell-based
Procedure: Automated whole cell patch-clamp recordings were performed using a QPatch 16 HT system and single-hole Qplates (Sophion, Denmark) on HEK-293 cells stably expressing the human SK3 channel (hKCa2.3). Cells were cultured and prepared for experiments using normal cell culturing procedures. A total of 4-5 million cells were used per experiment. The Qpatch automatically generates giga sealing, whole-cell formation, compound application and recording of current. hKCa2.3 currents were recorded in symmetrical K^+ solutions. The intracellular/pipette solution contained 154 mM KCl, 10 mM HEPES and 10 mM EGTA. CaCl2 is added to give calculated free concentrations of Ca^2+ of 0.4 μM and MgCl2 is added to give a free concentration of 1 mM. In order to maintain a total [K^+] of 156 mM (corresponding to the concentration in the extracellular ringer) a fixed amount of KOH (15 mM) is added, thereafter pH is adjusted with HCl to pH=7.2. Expected osmolarity: 275 mOsm. Sucrose was added to a final osmolarity around 295 mosm. The extracellular solution consisted of (in mM): CaCl2 0.1, MgCl2 3, KCl 150, HEPES 10 and glucose 10, pH=7.4 adjusted with KOH. Osmolarity between 285-295 mosm. The cells were held at 0 mV and hKCa2.3 currents were elicited by a linear voltage ramp from −80 mV to +80 mV (200 ms in duration) applied every 5th second.
The compound application protocol consisted of 12 recording periods lasting 200 s: 1) Baseline recordings in extracellular solution; 2) Application of the positive control N-methyl bicuculline (100 μM), which is characterized by full efficacy, fast on- and off-rate; 3-4) Wash-out; 5-10) Increasing concentrations of test compound to establish an IC50 value; 11-12) Wash-out; 13) positive control with compound NS8593 (N-[(1R)-1,2,3,4-tetrahydro-1-naphthalenyl]-1H-benzimidazol-2-amine) (1 μM) or with N-methyl bicuculline (100 μM). Data were sampled at 10 kHz, 4th order Bessel filter, cut-off frequency 3 kHz. Currents were compensated for run-down. Potency was quantified as the concentration needed to inhibit half of the SK channel activity and reported as an IC50 value.
All effects of compounds of the present invention as tested were normalized to the observed inhibitory effect of N-methyl bicuculline. Currents were measured at −80 mV.

Structure (SMILES)	IC50 [µM]
CC(CO)(Nc1nc2c(Cn3ccoc3=N)cccc2[nH]1)c1ccc(Cl)c(Cl)c1 (single isomer, unassigned) [Example 19a]	< 1
Cc1cn(Cc2cccc3[nH]c(NC(C)(CO)c4cccc(C(F)(F)F)c4)nc23)c(=N)o1 (single isomer, unassigned) [Example 24a]	< 30
CC(CO)(Nc1nc2c(Cn3ccoc3=N)cccc2[nH]1)c1cccc(OC(F)(F)F)c1 (single isomer, unassigned) [Example 27b]	< 30
CC(CO)(Nc1nc2c(Cn3ccoc3=N)cccc2[nH]1)c1ccc(Cl)c(F)c1 (single isomer, unassigned) [Example 39a, 2-(4-chloro-3-fluorophenyl)-2-({4-[(2-imino-2,3-dihydro-1,3-oxazol-3-yl)methyl]-1H-1,3-benzodiazol-2-yl}amino)propan-1-ol]	< 1
CC(CO)(Nc1nc2c(Cn3ccoc3=N)cccc2[nH]1)c1ccc(Cl)c(F)c1 (single isomer, unassigned) [Example 39b, 2-(4-chloro-3-fluorophenyl)-2-({4-[(2-imino-2,3-dihydro-1,3-oxazol-3-yl)methyl]-1H-1,3-benzodiazol-2-yl}amino)propan-1-ol]	< 30
CC(CO)(Nc1nc2c(CNc3ccon3)cccc2[nH]1)c1cccc(Cl)c1F (single isomer, unassigned) [Example 43a]	< 30
CC(CO)(Nc1nc2c(CNc3ccon3)cccc2[nH]1)c1ccc(Cl)c(F)c1 (single isomer, unassigned) [Example 44a]	< 30
CC(CO)(Nc1nc2c(Cn3ccoc3=N)cccc2[nH]1)c1cc(F)cc(Cl)c1 (single isomer, unassigned) [Example 45a]	< 1
CC(CO)(Nc1nc2c(Cn3ccoc3=N)cccc2[nH]1)c1cc(Cl)ccc1F (single isomer, unassigned) [Example 47a]	< 1
CC(CO)(Nc1nc2c(Cn3ccoc3=N)cccc2[nH]1)c1cccc(Cl)c1 (single isomer, unassigned; (+)) [Example 3b, (+)-2-(3-chlorophenyl)-2-({4-[(2-imino-2,3-dihydro-1,3-oxazol-3-yl)methyl]-1H-1,3-benzodiazol-2-yl}amino)propan-1-ol]	< 30
CC(CO)(Nc1nc2c(Cn3ccoc3=N)cccc2[nH]1)c1ccc(F)c(Cl)c1 (single isomer, unassigned; (+)) [Example 8b, (+)-2-(3-chloro-4-fluorophenyl)-2-({4-[(2-imino-2,3-dihydro-1,3-oxazol-3-yl)methyl]-1H-1,3-benzodiazol-2-yl}amino)propan-1-ol]	< 30
Cc1cc(NCc2cccc3[nH]c(NC(C)(CO)c4ccc(F)c(Cl)c4)nc23)no1 (single isomer, unassigned; (+)) [Example 12b, (+)-2-(3-chloro-4-fluorophenyl)-2-((4-(((5-methylisoxazol-3-yl)amino)methyl)-1H-benzo[d]imidazol-2-yl)amino)propan-1-ol]	< 30
CC(CO)(Nc1nc2c(Cn3ccoc3=N)cccc2[nH]1)c1cccc(C(F)(F)F)c1 (single isomer, unassigned; (+)) [Example 18b, (+)-2-({4-[(2-imino-2,3-dihydro-1,3-oxazol-3-yl)methyl]-1H-1,3-benzodiazol-2-yl}amino)-2-[3-(trifluoromethyl)-phenyl]propan-1-ol]	< 30
CC(CO)(Nc1nc2c(Cn3ccoc3=N)cccc2[nH]1)c1ccc(Cl)c(Cl)c1 (single isomer, unassigned; (+)) [Example 19b, (+)-2-(3,4-dichlorophenyl)-2-({4-[(2-imino-2,3-dihydro-1,3-oxazol-3-yl)methyl]-1H-1,3-benzodiazol-2-yl}amino)propan-1-ol]	< 30
Cc1cn(Cc2cccc3[nH]c(NC(C)(CO)c4cccc(C(F)(F)F)c4)nc23)c(=N)o1 (single isomer, unassigned; (+)) [Example 24b, (+)-2-({4-[(2-imino-5-methyl-2,3-dihydro-1,3-oxazol-3-yl)methyl]-1H-1,3-benzodiazol-2-yl}amino)-2-[3-(trifluoromethyl)-phenyl]propan-1-ol]	< 1
